Measurements: publication PMC8964833, “Identification of cell wall synthesis inhibitors active against Mycobacterium tuberculosis by competitive activity-based protein profiling” (Cell Chemical Biology, 2022)
Read-outs that look alike come from different tables or passages of the source.

Legend:
Pks13 [1] = biological target: T1, Pks13 (Mycobacterium tuberculosis, UniProt I6X8D2); assay: cell-based; conditions: Mycobacterium tuberculosis H37Rv, read-out: % inhibition
Pks13 [2] = biological target: T1, Pks13; assay: cell-based; conditions: Mycobacterium tuberculosis H37Rv, read-out: % inhibition; remark: listed apart in the source

T1 sequence (I6X8D2 whole entry, looked up): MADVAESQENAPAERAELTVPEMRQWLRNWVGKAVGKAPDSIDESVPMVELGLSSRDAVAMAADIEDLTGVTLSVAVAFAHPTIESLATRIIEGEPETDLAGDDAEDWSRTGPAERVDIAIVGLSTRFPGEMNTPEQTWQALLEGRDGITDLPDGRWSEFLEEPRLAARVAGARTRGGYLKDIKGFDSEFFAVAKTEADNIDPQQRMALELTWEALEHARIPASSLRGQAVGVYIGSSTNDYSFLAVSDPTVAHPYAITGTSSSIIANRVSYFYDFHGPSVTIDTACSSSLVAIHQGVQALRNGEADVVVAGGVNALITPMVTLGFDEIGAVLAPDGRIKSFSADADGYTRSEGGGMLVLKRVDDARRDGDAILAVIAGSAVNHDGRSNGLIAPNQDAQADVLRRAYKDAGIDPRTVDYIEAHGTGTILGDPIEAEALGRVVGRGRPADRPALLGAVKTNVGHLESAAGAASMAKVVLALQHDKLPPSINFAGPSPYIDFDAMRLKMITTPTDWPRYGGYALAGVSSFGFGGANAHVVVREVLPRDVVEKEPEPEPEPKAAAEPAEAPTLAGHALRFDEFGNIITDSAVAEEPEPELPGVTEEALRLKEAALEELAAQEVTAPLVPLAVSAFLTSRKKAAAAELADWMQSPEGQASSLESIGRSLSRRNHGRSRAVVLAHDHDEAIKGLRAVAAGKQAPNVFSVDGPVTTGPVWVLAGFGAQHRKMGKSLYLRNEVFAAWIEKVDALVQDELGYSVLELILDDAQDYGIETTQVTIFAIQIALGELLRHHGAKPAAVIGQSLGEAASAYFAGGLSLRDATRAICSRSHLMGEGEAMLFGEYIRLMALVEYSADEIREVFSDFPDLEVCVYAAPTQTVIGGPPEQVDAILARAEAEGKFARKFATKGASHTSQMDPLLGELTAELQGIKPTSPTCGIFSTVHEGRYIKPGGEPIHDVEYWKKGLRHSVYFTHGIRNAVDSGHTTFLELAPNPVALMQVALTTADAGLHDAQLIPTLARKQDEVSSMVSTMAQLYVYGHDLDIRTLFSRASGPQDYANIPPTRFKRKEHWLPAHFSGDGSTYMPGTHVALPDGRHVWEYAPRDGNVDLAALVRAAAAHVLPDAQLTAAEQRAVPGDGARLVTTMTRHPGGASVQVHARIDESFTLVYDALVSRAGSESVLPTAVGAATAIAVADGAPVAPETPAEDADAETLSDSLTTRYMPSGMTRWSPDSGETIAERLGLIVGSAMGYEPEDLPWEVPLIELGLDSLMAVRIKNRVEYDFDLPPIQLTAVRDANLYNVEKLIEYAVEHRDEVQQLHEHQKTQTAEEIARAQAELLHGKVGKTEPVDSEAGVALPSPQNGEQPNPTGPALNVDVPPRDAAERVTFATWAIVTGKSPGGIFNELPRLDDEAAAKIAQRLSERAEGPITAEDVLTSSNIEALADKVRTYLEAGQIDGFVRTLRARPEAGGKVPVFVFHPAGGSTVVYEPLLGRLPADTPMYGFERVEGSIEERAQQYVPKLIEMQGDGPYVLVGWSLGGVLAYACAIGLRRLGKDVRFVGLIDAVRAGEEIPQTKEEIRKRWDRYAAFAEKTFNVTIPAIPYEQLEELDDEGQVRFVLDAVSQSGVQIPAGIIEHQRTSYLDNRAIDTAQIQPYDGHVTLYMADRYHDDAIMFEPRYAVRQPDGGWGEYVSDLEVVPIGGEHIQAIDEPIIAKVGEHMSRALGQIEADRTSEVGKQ

Row | Compound | inhibition at 13 µM (Pks13 [1]) [%] | inhibition at 13 µM (Pks13 [2]) [%]
1 | CC(C)(O)c1cnn(C(=O)N2CCC(C(C)(C)C)CC2)n1 [AA692-(2,4), AA692] | 0 | 18
2 | CC(C)(O)c1cnn(C(=O)N2CCCCC2)n1 [AA702] |  | 0
